{"source": "patent US20240099951A1", "about": "“HAIR GROWTH STIMULANT” (ADJUVANT HOLDINGS CO., LTD., priority 2020, published 2024)", "key": {"[1]": {"tested_on": "hair groups derived from C57BL/6N dorsal body hair skin transplanted in Balb/c nu/nu mice", "assay": "Evaluation of hair-diameter-increasing activity (hair shafts grown after third cycle of Exemplary Test 1)", "assay_type": "in vivo", "procedure": "Dorsal body hair skin was collected from C57BL/6N mice (SLC) of age 7 to 8 weeks in accordance with a procedure similar to that at Exemplary Test 1, above, the drug being applied after the hair groups derived from the dorsal body hair skin that had been fabricated were transplanted in Balb/c nu/nu mice (SLC) of age 4 to 6 weeks. Testing and breeding of animals complied with pertinent laws, regulations, ordinances, and guidelines, and was performed with the approval of the Experimental Ethics Review Board of the Institute of Physical and Chemical Research. The following three solutions were used during testing. • 60% aqueous ethanol solution • 5% minoxidil solution • 1% phytosphingosine solution Measurement of increase in hair diameter was carried out using hair shafts which had grown following completion of the third cycle at Exemplary Test 1. Of the hair shafts that were collected, two zigzag hairs were used. Three locations were selected in regions where diameter was large in the central portions thereof using a square 100 μm on a side. Measurement of selected regions was carried out at five locations. Hairs as they existed following application of the drug were used for measurement of hair shaft diameter."}, "[2]": {"tested_on": "skin samples derived from C57BL/6N mouse dorsal body hair skin grafted onto Balb/c nu/nu mice", "assay": "Evaluation of hair growth activity: drug applied on skin samples transplanted in mice", "assay_type": "in vivo", "procedure": "C57BL/6N mice (male) and Balb/c nu/nu mice (female) were purchased from Japan SLC, Inc. (Japan) and bred, and were thereafter made available for the following testing. Note that the testing and breeding of animals complied with pertinent laws, regulations, ordinances, and guidelines, and was performed with the approval of the Experimental Ethics Review Board of the Institute of Physical and Chemical Research. The following reagents were respectively prepared. • Comparative Example 1: 60% aqueous ethanol solution • Comparative Example 2: 5% minoxidil solution • Comparative Example 3: 3% minoxidil solution • Comparative Example 4: 1% minoxidil solution • Working Example 1: 3% phytosphingosine solution • Working Example 2: 1% phytosphingosine solution To collect dorsal body hair skin in the form of anagen stage VI skin 12 to 14 days following depilation, C57BL/6N mice of age 7 to 8 weeks were depilated at locations where dorsal body hair skin was intended to be collected, and were bred for 12 to 14 days. The depilated C57BL/6N mice were thereafter euthanized by cervical dislocation, following which a suitable amount of dorsal body hair skin was collected from the locations at which dorsal body hair skin was intended to be collected. The collected skin was immersed in DMEM culture medium (hereinafter “DMEM 10”) which contained 10 mM HEPES, 10% fetal bovine serum, and 1% penicillin/streptomycin solution. The collected dorsal body hair skin was grasped with bent-nose curved tweezers and was treated by immersion for 10 seconds in a sterilizing solution. Sterilization treatment was performed by carrying out treatment with 7% povidone iodine solution two times, treatment with PBS (−) three times, and treatment with DMEM 10 two times, in this order, with fresh solutions respectively being used each time. Following sterilization treatment, these were immersed in clean DMEM 10. Following sterilization treatment, the dorsal body hair skin was cut into pieces and formed into blocks. The transparent connective tissue which adhered to the cutaneous muscle layer of the skin was excised therefrom using curved scissors, and hair groups were cut into rectangular strips in parallel fashion with respect to the direction of the wave of the hair. At this time, these were cut into blocks such that there were 6 rows of hair follicles along the long axis, adjustment having been carried out so that there were 5 rows of hair follicles along the short axis. The skin samples derived from dorsal body hair skin that were prepared in accordance with the foregoing were grafted onto Balb/c nu/nu mice of age 4 to 6 weeks. More specifically, mice were anesthetized in the usual way using isoflurane gas. The dorsal area of the mice was then disinfected using 7% povidone iodine solution, following which the mice were made to assume a naturally recumbent posture. In addition, a Mani ophthalmic knife (Mani, Inc.; Japan) was used to pierce the skin at the dorsal area of the mice, the grafts which were formed extending from the epidermal layer of the skin to the subdermal layer. The skin samples derived from dorsal body hair skin were inserted into the grafts formed thereat in such fashion as to cause the hair groups to be directed toward the body surface side of the grafts. Skin sample transplanted depth was adjusted so as to cause the top portion of the hair group to be in a state such that it was exposed at the top portion of the graft. To protect the grafts, Nurseban (registered trademark) (Sunplanet Co., Ltd.; Japan) and surgical tape (3M Japan Limited; Japan) were then used as protective tape to cover the grafts at which the skin samples derived from dorsal body hair skin had been transplanted. The protective tape was removed 5 to 7 days following transplantation, and survival of the transplanted skin samples derived from dorsal body hair skin was determined by visual inspection or digital microscopy (Keyence Corporation; Japan), after which follow-up observation was carried out. […]"}, "[3]": {"conditions": "1% minoxidil solution (Comparative Example 4), second hair cycle"}, "[4]": {"conditions": "1% minoxidil solution (Comparative Example 4), third hair cycle"}, "[5]": {"conditions": "1% minoxidil solution, second hair cycle vs first hair cycle"}, "[6]": {"conditions": "1% minoxidil solution, third hair cycle vs first hair cycle"}, "[7]": {"conditions": "3% minoxidil solution (Comparative Example 3), second hair cycle"}, "[8]": {"conditions": "3% minoxidil solution (Comparative Example 3), third hair cycle"}, "[9]": {"conditions": "3% minoxidil solution, second hair cycle vs first hair cycle"}, "[10]": {"conditions": "3% minoxidil solution, third hair cycle vs first hair cycle"}, "[11]": {"conditions": "5% minoxidil solution (Comparative Example 2), second hair cycle"}, "[12]": {"conditions": "5% minoxidil solution (Comparative Example 2), third hair cycle"}, "[13]": {"conditions": "5% minoxidil solution, second hair cycle vs first hair cycle"}, "[14]": {"conditions": "5% minoxidil solution, third hair cycle vs first hair cycle"}}}
{"smiles": "Nc1cc(N2CCCCC2)nc(N)[n+]1[O-]", "note": "[minoxidil]", "values": [{"measurement": "Hair shaft diameter", "setting": "[1]; 5% minoxidil solution applied, hair shafts after third cycle", "value": 18.28, "unit": "μm"}, {"measurement": "hair shaft diameter as percent of control", "setting": "[1]; 5% minoxidil solution vs 60% aqueous ethanol solution", "value": 115, "unit": "%"}, {"measurement": "Hair shaft elongation rate", "setting": "[2]; [3]", "value": "0.54 ± 0.08", "unit": "mm/day"}, {"measurement": "Maximum hair shaft length", "setting": "[2]; [3]", "value": "5.2 ± 0.3", "unit": "mm"}, {"measurement": "Hair shaft elongation rate", "setting": "[2]; [4]", "value": "0.44 ± 0.02", "unit": "mm/day"}, {"measurement": "Maximum hair shaft length", "setting": "[2]; [4]", "value": "4.9 ± 0.4", "unit": "mm"}, {"measurement": "Hair shaft elongation rate, percent change relative to reference data", "setting": "[2]; [5]", "value": 123.85, "unit": "%"}, {"measurement": "Maximum hair shaft length, percent change relative to reference data", "setting": "[2]; [5]", "value": 118.07, "unit": "%"}, {"measurement": "Hair shaft elongation rate, percent change relative to reference data", "setting": "[2]; [6]", "value": 100.24, "unit": "%"}, {"measurement": "Maximum hair shaft length, percent change relative to reference data", "setting": "[2]; [6]", "value": 111.10, "unit": "%"}, {"measurement": "Hair shaft elongation rate", "setting": "[2]; [7]", "value": "0.48 ± 0.07", "unit": "mm/day"}, {"measurement": "Maximum hair shaft length", "setting": "[2]; [7]", "value": "5.2 ± 0.2", "unit": "mm"}, {"measurement": "Hair shaft elongation rate", "setting": "[2]; [8]", "value": "0.53 ± 0.03", "unit": "mm/day"}, {"measurement": "Maximum hair shaft length", "setting": "[2]; [8]", "value": "5.3 ± 0.3", "unit": "mm"}, {"measurement": "Hair shaft elongation rate, percent change relative to reference data", "setting": "[2]; [9]", "value": 126.50, "unit": "%"}, {"measurement": "Maximum hair shaft length, percent change relative to reference data", "setting": "[2]; [9]", "value": 116.80, "unit": "%"}, {"measurement": "Hair shaft elongation rate, percent change relative to reference data", "setting": "[2]; [10]", "value": 139.36, "unit": "%"}, {"measurement": "Maximum hair shaft length, percent change relative to reference data", "setting": "[2]; [10]", "value": 120.09, "unit": "%"}, {"measurement": "Hair shaft elongation rate", "setting": "[2]; [11]", "value": "0.51 ± 0.03", "unit": "mm/day"}, {"measurement": "Maximum hair shaft length", "setting": "[2]; [11]", "value": "6.0 ± 0.1", "unit": "mm"}, {"measurement": "Hair shaft elongation rate", "setting": "[2]; [12]", "value": "0.55 ± 0.07", "unit": "mm/day"}, {"measurement": "Maximum hair shaft length", "setting": "[2]; [12]", "value": "5.8 ± 0.1", "unit": "mm"}, {"measurement": "Hair shaft elongation rate, percent change relative to reference data", "setting": "[2]; [13]", "value": 116.25, "unit": "%"}, {"measurement": "Maximum hair shaft length, percent change relative to reference data", "setting": "[2]; [13]", "value": 115.74, "unit": "%"}, {"measurement": "Hair shaft elongation rate, percent change relative to reference data", "setting": "[2]; [14]", "value": 126.11, "unit": "%"}, {"measurement": "Maximum hair shaft length, percent change relative to reference data", "setting": "[2]; [14]", "value": 112.62, "unit": "%"}]}
